Laboratory results: US8980838B2, “Cyclized peptidomimetic small molecule inhibitors of the WDR5 and MLL1 interaction” (The Regents of the University of Michigan, priority 2011, dated 2015)
*1 amine or outer side, *2 acyl side, *3 side chain or, on linkers, in order; H or OH if unused. Where a SMILES comes first, the peptide text is derived from it. Bridges are numbered along the chain shown (N, C = ends). [ ]: non-standard residue; d: D form. The star is where a group is joined. dαMeLys(Me) = CN(CCCC[C@@](C)(N[*:1])C(=O)[*:2])[*:3]; dPhg(4-F) = N[C@@H](C(=O)O)c1ccc(F)cc1; dPhg = N[C@@H](C(=O)O)c1ccccc1; Isobutyryl = CC(C)C(=O)*; Abu = CC[C@H](N)C(=O)O

These molecules were tested against T1, WDR5 (Homo sapiens, UniProt P61964) (assay: fluorescence-polarization based competitive binding assay). Conditions: not given.
T1 construct: N-terminal His-tagged WDR5Δ23 (residues 24-334) was expressed from the pET28-MHL vector; His tag (N); made in house; host or cells: Rosetta2(DE3) pLysS cells (E. coli)
Experimental: Binding Assay Protein Expression and Purification for the Binding Assay
Cells were grown to OD600=0.4-0.6 in 4 L 2×TY at 30° C., induced with 0.1 mM IPTG at 16° C. for 16 hours and harvested in 20 mM HEPES pH 7.5, 500 mM KCl, 10% glycerol, 0.1 mg/ml PMSF, 0.05% NP40. Cells were lysed by addition of 0.2 mg/ml hen egg white lysozyme followed by sonication and clarification by centrifuging for 30 minutes at 15,000 rpm. The resin was washed 3 times for 10 minutes with 40 ml lysis buffer. His-WDR5Δ23 was eluted from the resin by 3×15 minute elutions with 20 mM HEPES pH 7.5, 100 mM KCl, 10% glycerol, 250 mM imidazole pH 7.5. […] Concentrated protein was aliquoted and samples were frozen on dry ice and stored at −80° C.
The IC50 value of the inhibitors were calculated using GraphPad Prism 4 software.
Competitive Binding Experiments
The binding affinities of the synthetic peptides shown in the study were measured using this competitive binding assay described earlier (31). A pre-incubated complex solution of WDR5Δ23 and the tracer in 120 μl assay buffer were added to dilutions of the test compound in 5 μl DMSO, giving final concentrations of WDR5Δ23 and the tracer of 4 nM and 0.6 nM, respectively. […] The plates were incubated with shaking at room temperature. The mP values were measured after five hours of incubation and Ki values were calculated using the equation described previously (32).
CC[C@@H]1NC(=O)[C@H](CCCNC(=N)N)NC(=O)[C@](C)(NC(=O)C(C)C)CCCCN(C)C(=O)[C@@H](c2ccccc2)NC1=O [Compound 29d] (Isobutyryl-[dαMeLys(Me)]R[Abu][dPhg]; lactam 1-C) was tested, and the IC50 was < 0.01 µM. In the case of CC[C@@H]1NC(=O)[C@H](CCCNC(=N)N)NC(=O)[C@](C)(NC(=O)C(C)C)CCCCN(C)C(=O)[C@@H](c2ccc(F)cc2)NC1=O [Compound 29e] (Isobutyryl-[dαMeLys(Me)]R[Abu][dPhg(4-F)]; lactam 1-C), the IC50 is reported as < 0.01 µM. In the case of CC[C@@H]1NC(=O)[C@H](CCCNC(=N)N)NC(=O)[C@](C)(NC(=O)C(C)C)CCCCN(C)C(=O)[C@@H](c2ccc(Cl)cc2)NC1=O [Compound 29f], the IC50 is reported as < 0.01 µM.

Same assay, conditions: FP competitive binding; WDR5Δ23 4 nM, tracer 0.6 nM, five hours incubation; Table 2 series; read-out: IC50, binding affinity to WDR5
With CC[C@@H]1NC(=O)[C@H](CCCNC(=N)N)NC(=O)[C@](C)(NC(=O)C(C)C)CCCCCNC1=O [Compound 19a] the IC50 was < 1 µM. In the case of CC[C@@H]1NC(=O)[C@H](CCCNC(=N)N)NC(=O)[C@](C)(NC(=O)C(C)C)CCCCCCNC1=O [Compound 19b], the IC50 is reported as < 0.01 µM. CC[C@@H]1NC(=O)[C@H](CCCNC(=N)N)NC(=O)[C@](C)(NC(=O)C(C)C)CCCCCCCCNC1=O [Compound 19c] was tested, and the IC50 was < 0.01 µM. CC[C@@H]1NC(=O)[C@H](CCCNC(=N)N)NC(=O)[C@](C)(NC(=O)C(C)C)CCCCCCNC(=O)[C@@H](c2ccccc2)NC1=O [Compound 29b] was tested, and the IC50 was < 0.01 µM. For CC[C@@H]1NC(=O)[C@H](CCCNC(=N)N)NC(=O)[C@](C)(NC(=O)C(C)C)CCCCCCNC(=O)[C@H](c2ccccc2)NC1=O [Compound 29c], the IC50 was < 0.01 µM.

Same assay, conditions: FP competitive binding; WDR5Δ23 4 nM, tracer 0.6 nM, five hours incubation; Table 3 series; read-out: IC50, binding affinity to WDR5
In the case of CC[C@@H]1NC(=O)[C@H](CCCNC(=N)N)NC(=O)[C@@](C)(NC(=O)C(C)C)CCCCCCCNC1=O [Compound 34c], the IC50 is reported as < 1 µM. CC[C@@H]1NC(=O)[C@H](CCCNC(=N)N)NC(=O)[C@@](C)(NC(=O)C(C)C)CCCCCCCCNC1=O [Compound 34d] was tested, and the IC50 was < 1 µM. In the case of CC[C@@H]1NC(=O)[C@H](CCCNC(=N)N)NC(=O)[C@@](C)(NC(=O)C(C)C)CCCCCCNC(=O)[C@H](c2ccccc2)NC1=O [Compound 36], the IC50 is reported as < 1 µM.

Same assay, conditions: FP competitive binding; WDR5Δ23 4 nM, tracer 0.6 nM, five hours incubation; first cyclic series (Table 1); read-out: IC50, binding affinity to WDR5
CCC1(CC)NC(=O)CCCCNC(=O)[C@H](CCCNC(=N)N)NC1=O [Compound 4a] was tested, and the IC50 was > 100 µM. CCC1(CC)NC(=O)CCCCCNC(=O)[C@H](CCCNC(=N)N)NC1=O [Compound 4b] was tested, and the IC50 was > 100 µM. In the case of CCC1(CC)NC(=O)CCCCCCNC(=O)[C@H](CCCNC(=N)N)NC1=O [Compound 4c], the IC50 is reported as > 100 µM. In the case of CCC1(CC)NC(=O)CCCCCCCNC(=O)[C@H](CCCNC(=N)N)NC1=O [Compound 4d], the IC50 is reported as > 1 µM. For CCC1(CC)NC(=O)CCCCCCCCNC(=O)[C@H](CCCNC(=N)N)NC1=O [Compound 4e], the IC50 was > 1 µM. In the case of CCC1(CC)NC(=O)CCCCCCCN(C(C)=O)C[C@H](CCCNC(=N)N)NC1=O [Compound 14], the IC50 is reported as > 100 µM. CCC1(CC)NC(=O)CCCCCCCNC[C@H](CCCNC(=N)N)NC1=O [Compound 15] was tested, and the IC50 was > 100 µM.
